Results reported in patent US20100267561A1, “HERBICIDAL PYRIDAZINONE DERIVATIVES” (priority 2007, published 2010).

What was measured:
Assay in all cases: Test B pre-/postemergence plant response
Assay type in all cases: in vivo
[1] = test system: blackgrass (Alopecurus myosuroides); settings: for Blackgrass plant response rating: 8 g ai/ha
How it was run: (§1)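 Visual scoring from 0 (no effect) to 100 (complete control) against untreated controls was done 13 to 15 days after greenhouse treatment. Chemicals were formulated in a surfactant-containing non-phytotoxic solvent and applied to soil preemergence or to 1- to 4-leaf (2-18 cm) plants postemergence.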

[2] = test system: common (oilseed) sunflower (Helianthus annuus); settings: Preemergence; for Sunflower plant response rating: scale 0 to 100
How it was run: as §1

[3] = test system: common ragweed (Ambrosia elation)
How it was run: as §1

[4] = test system: eastern black (E.B.) nightshade (Solanum ptycanthum); settings: Preemergence; for Nightshade, E. B. plant response rating: scale 0 to 100
How it was run: as §1

[5] = test system: goosegrass (Eleusine indica)
How it was run: as §1

[6] = test system: green foxtail (Setaria viridis)
How it was run: as §1

kochia (Kochia scoparia) = settings: for Kochia plant response rating: postemergence, 0-100 scale; for Plant response rating, Kochia: Postemergence
How it was run: as §1

[7] = test system: lambsquarters (Chenopodium album)
How it was run: as §1

[8] = test system: large crabgrass (Digitaria sanguinalis)
How it was run: as §1

[9] = test system: morningglory (Ipomoea coccinea)
How it was run: as §1

soybean (Glycine max) = test system: soybean (Glycine max)
How it was run: as §1

[10] = test system: surinam grass (Brachiaria decumbens)
How it was run: as §1

[11] = test system: wheat (Triticum aestivum)
How it was run: as §1

wild oat (Avena fatua) = test system: wild oat (Avena fatua)
How it was run: as §1

[12] = Postemergence, 16 g ai/ha, scale 0 to 100
[13] = Postemergence, 31 g ai/ha, scale 0 to 100
[14] = Postemergence, 62 g ai/ha, scale 0 to 100, 0 no effect, 100 complete control
[15] = Preemergence, 16 g ai/ha, scale 0 to 100 (0 no effect, 100 complete control)
[16] = Preemergence, 31 g ai/ha, scale 0 to 100 (0 no effect, 100 complete control)
[17] = Preemergence, 62 g ai/ha, 0 to 100 scale, 0 no effect, 100 complete control
[18] = 31 g ai/ha, scale 0 to 100 (0 no effect, 100 complete control)
[19] = 62 g ai/ha, 0 to 100 scale, 0 no effect, 100 complete control
[20] = 8 g ai/ha, postemergence, 0-100 scale
[21] = 16 g ai/ha, postemergence, 0-100 scale
[22] = Preemergence, 8 g ai/ha, scale 0 to 100
[23] = Preemergence, 16 g ai/ha, scale 0 to 100
[24] = 62 g ai/ha, scale 0 to 100, 0 no effect, 100 complete control

CCc1cc(-c2ccc(C(F)(F)F)cc2)nn1-c1c(O)c(OC)nn(C)c1=O [Compound 66]
Blackgrass plant response rating ([1]; postemergence, 0-100 scale): 90 | Plant response rating, Blackgrass [1, 12]: 100 | Plant response rating, Blackgrass [1, 13]: 100 | Plant response rating, Blackgrass [1, 14]: 100 | Plant response rating, Blackgrass [1, 15]: 100 | Plant response rating, Blackgrass [1, 16]: 100 | Plant response rating, Blackgrass [1, 17]: 100 | Blackgrass plant response rating ([1]; Preemergence, scale 0 to 100): 90 | Plant response rating, Sunflower [2, 18]: 0 | Plant response rating, Sunflower [2, 19]: 0 | Sunflower plant response rating ([2]; 8 g ai/ha): 0 | Sunflower plant response rating ([2]; 16 g ai/ha): 0 | Ragweed plant response rating [3, 20]: 0 | Ragweed plant response rating [3, 21]: 0 | Plant response rating, Ragweed [3, 13]: 0 | Plant response rating, Ragweed [3, 14]: 0 | Plant response rating, Ragweed [3, 17]: 0 | Ragweed plant response rating [3, 22]: 0 | Ragweed plant response rating [3, 23]: 0 | Plant response rating, Nightshade, E. B. [4, 18]: 0 | Plant response rating, Nightshade, E. B. [4, 19]: 0 | Nightshade, E. B. plant response rating ([4]; 8 g ai/ha): 0 | Nightshade, E. B. plant response rating ([4]; 16 g ai/ha): 0 | Goosegrass plant response rating [5, 20]: 70 | Goosegrass plant response rating [5, 21]: 75 | Plant response rating, Goosegrass [5, 13]: 85 | Plant response rating, Goosegrass [5, 14]: 98 | Plant response rating, Goosegrass [5, 16]: 25 | Plant response rating, Goosegrass [5, 17]: 70 | Goosegrass plant response rating [5, 22]: 0 | Goosegrass plant response rating [5, 23]: 0 | Foxtail, Green plant response rating [6, 20]: 80 | Plant response rating, Foxtail, Green [6, 12]: 100 | Plant response rating, Foxtail, Green [6, 13]: 100 | Plant response rating, Foxtail, Green [6, 14]: 100 | Plant response rating, Foxtail, Green [6, 16]: 100 | Plant response rating, Foxtail, Green [6, 17]: 100 | Foxtail, Green plant response rating [6, 22]: 98 | Foxtail, Green plant response rating [6, 23]: 100 | Kochia plant response rating (kochia (Kochia scoparia); 8 g ai/ha): 0 | Kochia plant response rating (kochia (Kochia scoparia); 16 g ai/ha): 0 | Plant response rating, Kochia (kochia (Kochia scoparia); 31 g ai/ha, scale 0 to 100): 0 | Plant response rating, Kochia (kochia (Kochia scoparia); [24]): 0 | Lambsquarters plant response rating [7, 20]: 0 | Lambsquarters plant response rating [7, 21]: 0 | Plant response rating, Lambsquarters [7, 13]: 0 | Plant response rating, Lambsquarters [7, 14]: 0 | Crabgrass, Large plant response rating [8, 20]: 70 | Plant response rating, Crabgrass, Large [8, 12]: 85 | Plant response rating, Crabgrass, Large [8, 13]: 98 | Plant response rating, Crabgrass, Large [8, 14]: 100 | Plant response rating, Crabgrass, Large [8, 16]: 60 | Plant response rating, Crabgrass, Large [8, 17]: 80 | Crabgrass, Large plant response rating [8, 22]: 0 | Crabgrass, Large plant response rating [8, 23]: 0 | Morningglory plant response rating [9, 20]: 0 | Morningglory plant response rating [9, 21]: 0 | Plant response rating, Morningglory [9, 13]: 0 | Plant response rating, Morningglory [9, 14]: 0 | Plant response rating, Morningglory [9, 16]: 0 | Plant response rating, Morningglory [9, 17]: 0 | Morningglory plant response rating [9, 22]: 0 | Morningglory plant response rating [9, 23]: 0 | Soybean plant response rating (soybean (Glycine max); [20]): 0 | Soybean plant response rating (soybean (Glycine max); [21]): 0 | Plant response rating, Soybean (soybean (Glycine max); [13]): 0 | Plant response rating, Soybean (soybean (Glycine max); [14]): 0 | Plant response rating, Soybean (soybean (Glycine max); [16]): 0 | Plant response rating, Soybean (soybean (Glycine max); [17]): 0 | Soybean plant response rating (soybean (Glycine max); [22]): 0 | Soybean plant response rating (soybean (Glycine max); [23]): 0 | Surinam Grass plant response rating [10, 20]: 95 | Surinam Grass plant response rating [10, 21]: 98 | Plant response rating, Surinam Grass [10, 13]: 100 | Plant response rating, Surinam Grass [10, 14]: 100 | Plant response rating, Surinam Grass [10, 16]: 98 | Plant response rating, Surinam Grass [10, 17]: 98 | Surinam Grass plant response rating [10, 22]: 0 | Surinam Grass plant response rating [10, 23]: 80 | Wheat plant response rating [11, 20]: 95 | Wheat plant response rating [11, 21]: 100 | Plant response rating, Wheat [11, 13]: 100 | Plant response rating, Wheat [11, 14]: 100 | Plant response rating, Wheat [11, 16]: 95 | Plant response rating, Wheat [11, 17]: 95 | Wheat plant response rating [11, 23]: 90 | Oat, Wild plant response rating (wild oat (Avena fatua); [20]): 95 | Oat, Wild plant response rating (wild oat (Avena fatua); [21]): 100 | Plant response rating, Oat, Wild (wild oat (Avena fatua); [13]): 100 | Plant response rating, Oat, Wild (wild oat (Avena fatua); [14]): 100 | Plant response rating, Oat, Wild (wild oat (Avena fatua); [16]): 95 | Plant response rating, Oat, Wild (wild oat (Avena fatua); [17]): 100 | Oat, Wild plant response rating (wild oat (Avena fatua); [22]): 90 | Oat, Wild plant response rating (wild oat (Avena fatua); [23]): 95

CCCc1cc(-c2ccc(C(F)(F)F)cc2)nn1-c1c(O)cnn(C)c1=O [Compound 72]
Blackgrass plant response rating ([1]; postemergence, 0-100 scale): 80 | Plant response rating, Blackgrass [1, 12]: 95 | Plant response rating, Blackgrass [1, 13]: 98 | Plant response rating, Blackgrass [1, 14]: 100 | Plant response rating, Blackgrass [1, 15]: 90 | Plant response rating, Blackgrass [1, 16]: 95 | Plant response rating, Blackgrass [1, 17]: 100 | Blackgrass plant response rating ([1]; Preemergence, scale 0 to 100): 60 | Plant response rating, Sunflower [2, 18]: 0 | Plant response rating, Sunflower [2, 19]: 0 | Sunflower plant response rating ([2]; 8 g ai/ha): 0 | Sunflower plant response rating ([2]; 16 g ai/ha): 0 | Ragweed plant response rating [3, 20]: 0 | Ragweed plant response rating [3, 21]: 0 | Plant response rating, Ragweed [3, 13]: 0 | Plant response rating, Ragweed [3, 14]: 0 | Plant response rating, Ragweed [3, 16]: 0 | Plant response rating, Ragweed [3, 17]: 10 | Ragweed plant response rating [3, 22]: 0 | Ragweed plant response rating [3, 23]: 0 | Plant response rating, Nightshade, E. B. [4, 18]: 0 | Plant response rating, Nightshade, E. B. [4, 19]: 30 | Nightshade, E. B. plant response rating ([4]; 8 g ai/ha): 0 | Nightshade, E. B. plant response rating ([4]; 16 g ai/ha): 0 | Goosegrass plant response rating [5, 20]: 30 | Goosegrass plant response rating [5, 21]: 30 | Plant response rating, Goosegrass [5, 13]: 35 | Plant response rating, Goosegrass [5, 14]: 35 | Plant response rating, Goosegrass [5, 16]: 95 | Plant response rating, Goosegrass [5, 17]: 100 | Goosegrass plant response rating [5, 22]: 95 | Goosegrass plant response rating [5, 23]: 95 | Foxtail, Green plant response rating [6, 20]: 98 | Plant response rating, Foxtail, Green [6, 12]: 98 | Plant response rating, Foxtail, Green [6, 13]: 100 | Plant response rating, Foxtail, Green [6, 14]: 100 | Plant response rating, Foxtail, Green [6, 16]: 100 | Plant response rating, Foxtail, Green [6, 17]: 100 | Foxtail, Green plant response rating [6, 22]: 25 | Foxtail, Green plant response rating [6, 23]: 100 | Kochia plant response rating (kochia (Kochia scoparia); 8 g ai/ha): 0 | Kochia plant response rating (kochia (Kochia scoparia); 16 g ai/ha): 0 | Plant response rating, Kochia (kochia (Kochia scoparia); 31 g ai/ha, scale 0 to 100): 0 | Plant response rating, Kochia (kochia (Kochia scoparia); [24]): 0 | Lambsquarters plant response rating [7, 20]: 0 | Lambsquarters plant response rating [7, 21]: 0 | Plant response rating, Lambsquarters [7, 13]: 0 | Plant response rating, Lambsquarters [7, 14]: 0 | Plant response rating, Lambsquarters [7, 16]: 30 | Plant response rating, Lambsquarters [7, 17]: 40 | Lambsquarters plant response rating [7, 22]: 0 | Lambsquarters plant response rating [7, 23]: 0 | Crabgrass, Large plant response rating [8, 20]: 95 | Plant response rating, Crabgrass, Large [8, 12]: 100 | Plant response rating, Crabgrass, Large [8, 13]: 100 | Plant response rating, Crabgrass, Large [8, 14]: 100 | Plant response rating, Crabgrass, Large [8, 16]: 80 | Plant response rating, Crabgrass, Large [8, 17]: 100 | Crabgrass, Large plant response rating [8, 22]: 30 | Crabgrass, Large plant response rating [8, 23]: 50 | Morningglory plant response rating [9, 20]: 0 | Morningglory plant response rating [9, 21]: 0 | Plant response rating, Morningglory [9, 13]: 0 | Plant response rating, Morningglory [9, 14]: 0 | Plant response rating, Morningglory [9, 16]: 0 | Plant response rating, Morningglory [9, 17]: 0 | Morningglory plant response rating [9, 22]: 0 | Morningglory plant response rating [9, 23]: 0 | Soybean plant response rating (soybean (Glycine max); [20]): 0 | Soybean plant response rating (soybean (Glycine max); [21]): 0 | Plant response rating, Soybean (soybean (Glycine max); [13]): 0 | Plant response rating, Soybean (soybean (Glycine max); [14]): 0 | Plant response rating, Soybean (soybean (Glycine max); [16]): 0 | Plant response rating, Soybean (soybean (Glycine max); [17]): 0 | Soybean plant response rating (soybean (Glycine max); [22]): 0 | Soybean plant response rating (soybean (Glycine max); [23]): 0 | Surinam Grass plant response rating [10, 20]: 95 | Surinam Grass plant response rating [10, 21]: 95 | Plant response rating, Surinam Grass [10, 13]: 98 | Plant response rating, Surinam Grass [10, 14]: 100 | Plant response rating, Surinam Grass [10, 16]: 85 | Plant response rating, Surinam Grass [10, 17]: 100 | Surinam Grass plant response rating [10, 23]: 85 | Wheat plant response rating [11, 20]: 85 | Wheat plant response rating [11, 21]: 85 | Plant response rating, Wheat [11, 13]: 85 | Plant response rating, Wheat [11, 14]: 95 | Plant response rating, Wheat [11, 16]: 80 | Plant response rating, Wheat [11, 17]: 90 | Wheat plant response rating [11, 23]: 35 | Oat, Wild plant response rating (wild oat (Avena fatua); [20]): 100 | Oat, Wild plant response rating (wild oat (Avena fatua); [21]): 100 | Plant response rating, Oat, Wild (wild oat (Avena fatua); [13]): 100 | Plant response rating, Oat, Wild (wild oat (Avena fatua); [14]): 100 | Plant response rating, Oat, Wild (wild oat (Avena fatua); [16]): 95 | Plant response rating, Oat, Wild (wild oat (Avena fatua); [17]): 98 | Oat, Wild plant response rating (wild oat (Avena fatua); [22]): 60 | Oat, Wild plant response rating (wild oat (Avena fatua); [23]): 80
